Measurements reported in BindingDB's records for doi:10.7270/Q2HT2MVZ (Burnham Center For Chemical Genomics, 2011).
pIC50: −log10 of the molar value.

Target: T1, Sentrin-specific protease 8 (Homo sapiens, UniProt Q96LD8)
T1 sequence (Q96LD8 whole entry): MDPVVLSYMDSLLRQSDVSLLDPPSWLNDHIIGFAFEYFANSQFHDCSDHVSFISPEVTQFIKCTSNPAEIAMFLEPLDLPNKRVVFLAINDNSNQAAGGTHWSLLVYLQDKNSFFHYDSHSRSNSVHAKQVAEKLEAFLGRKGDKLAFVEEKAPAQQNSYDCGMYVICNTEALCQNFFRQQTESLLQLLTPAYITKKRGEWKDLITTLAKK
Assay: SENP8 protease inhibitors, SAR follow-up, biochemical, luminescence, set 2 (AID 588601)

CCOC1=CC(=CC(C#N)c2nc(-c3ccc(C)cc3)no2)C=C(Cl)C1=O (stereo unspecified)
pIC50: < 4.00
